Laboratory results taken from US12459951B2, “Compounds that interact with RAS superfamily proteins for treatment of cancers, inflammatory diseases, rasopathies, and fibrotic disease” (SHY Therapeutics, LLC, priority 2022, dated 2025).

Tests used:
[1] = tested on: JNK phosphorylation; assay: JNK Activation Assay (western blot), Panc-1; type: cell-based, human; details: at 10 μM, Panc-1 pancreatic cancer cell line; starred symbols = activation
Protocol: Protocol for JNK Activation Assay
This assay is referred to as the “JNK Activation Assay” throughout this application.
Cell lines: Human tumor-derived pancreatic cancer cell line Panc-1 (expressing KRas […] mutant) was purchased from American Type Culture Collection and grown in complete DMEM-High Glucose medium, supplemented with penicillin (100 U/mL), streptomycin (100 μg/mL), and 10% heat-inactivated FBS at 37° C. in a humidified incubator with 5% CO2.
Method 1: Cells were plated at 350000 cells/well density in a 12-well plate, allowed 3 hours to adhere to the plate, then starved in the appropriate medium in the presence of 0.5% FBS overnight. The small molecules to be tested were added to the cells in the final concentration of 10 μM in the presence of 0.3% DMSO for 6 hours incubation at 37° C. For IC50 value determination, serial dilutions of compounds were added to cells under the same conditions. Next, cells were stimulated with 1.5 ng/ml EGF for 15 minutes then cells were lysed with lysis buffer containing 1% Triton X-100, EDTA, and Halt™ Protease & Phosphatase Inhibitor Cocktail (Thermo Scientific). Protein concentration was assessed by BCA protein assay (Thermo Scientific). Phosphorylation level of JNK was determined by western blot.
Method 2: Cells were plated at 350000 cells/well density in a 12-well plate in the presence of 10% FBS. The next day small molecules to be tested were added to the cells in the final concentration of 10 μM in the presence of 0.3% DMSO for 6 hours incubation at 37° C. For IC50 value determination, serial dilutions of compounds were added to cells under the same conditions. Next, cells were lysed with lysis buffer containing 1% Triton X-100, EDTA, and Halt™ Protease & Phosphatase Inhibitor Cocktail (Thermo Scientific). Protein concentration was assessed by BCA protein assay (Thermo Scientific). Phosphorylation level of JNK was determined by western blot.
Western blot protocol: Equal amounts of protein (15-50 μg) were separated by SDS-PAGE and transferred to nitrocellulose membranes (Invitrogen by Thermo Fisher Scientific). The membrane was stained with Ponceau S Stain (Boston BioProducts) to verify uniform protein loading. Membranes were blocked with 10% milk and phosphorylation levels of JNK were assessed by incubating overnight at 4° C. with the antibody Phospho-SAPK/JNK (Thr183/Tyr185), from Cell Signaling Technology. Then the membranes were incubated with HRP-conjugated secondary antibody (Jackson Immunoresearch, West Grove, PA). Bands were incubated in Amersham ECL Prime Western Blotting Detection Reagent (GE Healthcare) and visualized using the ChemiDoc MP imaging system (Bio-Rad).

[2] = biological target: T1, cdc42 (Homo sapiens, UniProt P60953); assay: Cdc42 GTP Binding Domain Inhibition Assay; details: read-out: Cdc42: % inh.
T1 construct: made in house
T1 sequence (P60953 whole entry, the tested form may be a part): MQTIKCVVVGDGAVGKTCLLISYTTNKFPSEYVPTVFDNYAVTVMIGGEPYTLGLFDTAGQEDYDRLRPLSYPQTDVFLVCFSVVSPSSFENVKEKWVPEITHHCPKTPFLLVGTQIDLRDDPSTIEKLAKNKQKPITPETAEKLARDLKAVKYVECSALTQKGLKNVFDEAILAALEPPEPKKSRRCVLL
Protocol: (§1) Protocol for Cdc42 and Rheb GTP Binding Domain Inhibition Assay
(§2) The following method was developed as specific assay for cdc42 and Rheb proteins.
(§3) • 25 mM Tris-HCl, pH 7.4 • 27 mM KCl • 137 mM NaCl • 1 mM MgCl2 • 1 mM DTT Buffer-II: • 50 mM Tris-HCl, pH 7.0 • 1 mM MgCl2 • 1 mM DTT
(§4) The small GTPases proteins cdc42 and Rheb were expressed as His-tagged proteins. For the assay, the cdc42 and Rheb purified small GTPases proteins were diluted in Buffer-I or Buffer-II to a final concentration of 10-30 μg/mL. 200 μL of each diluted protein was added to a nickel-coated 96-well plate and incubated overnight at […]. Then the protein solution was discarded and 200 μL of Buffer-I or Buffer-II was added to each well in the presence of 1% DMSO. Compounds to be tested were added to the protein-coated wells at final concentration of 20 μM, and incubated for 3 hours at room temperature with and without 10-30 μg/mL of Sos added to the final hour of the incubation. When performing IC50 measurements a serial dilution of all tested concentrations was added. Then Cy3-GTP or Cy5-GTP was added to each well to a final concentration of 100 nM. The labeled GTP was incubated for 45 minutes at room temperature. Following GTP incubation, wells were washed 3× in Buffer-I or Buffer-II and 200 μL of Buffer-I or Buffer-II was added to each well. Following washes, the amount of bound labeled-GTP was measured using a SpectraMax M3 (Molecular Devices).

[3] = biological target: T2, Rheb (Homo sapiens, UniProt Q15382); assay: Rheb GTP Binding Domain Inhibition Assay; details: read-out: Rheb: % inh.
T2 construct: made in house
T2 sequence (Q15382 whole entry, the tested form may be a part): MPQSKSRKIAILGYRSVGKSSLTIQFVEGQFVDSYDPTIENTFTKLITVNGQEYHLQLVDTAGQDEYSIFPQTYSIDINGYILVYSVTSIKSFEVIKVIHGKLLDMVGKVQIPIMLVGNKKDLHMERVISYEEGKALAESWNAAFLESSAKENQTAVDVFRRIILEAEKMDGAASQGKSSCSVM
Protocol: as §1, §2, §3, §4

| SMILES | inhibition at 20 µM [2] | inhibition at 20 µM [3] | % inh of JNK in Panc-1 [1] |
| --- | --- | --- | --- |
| CO[C@H]1CC[C@@H](Nc2nc(-c3ccccn3)nn3cc(-c4ccn(C(C)C)n4)c(C)c23)C1 (racemic) [Compound 9, rac 6-(1-Isopropyl-1H-pyrazol-3-yl)-N-((1R,3S)-3-methoxycyclopentyl)-5-methyl-2-(pyridin-2-yl)pyrrolo[2,1-f][1,2,4]triazin-4-amine] |  |  | F* (F* = 31-74% activation) |
| Cc1c(-c2ccn(C(C)C)n2)cn2nc(-c3ccccn3)nc(O)c12 [Compound 8, 6-(1-Isopropyl-1H-pyrazol-3-yl)-5-methyl-2-(pyridin-2-yl)pyrrolo[2,1-f][1,2,4]triazin-4-ol] |  |  | E* (E* = 1-30% activation) |
| COc1ccnc(Nc2nc(-c3nccn3C)nn3cc(-c4ccn(C(F)F)n4)c(C)c23)n1 [Compound 95, 6-(1-(Difluoromethyl)-1H-pyrazol-3-yl)-N-(4-methoxypyrimidin-2-yl)-5-methyl-2-(1-methyl-1H-imidazol-2-yl)pyrrolo[2,1-f][1,2,4]triazin-4-amine] | 50 to 75% | 50 to 75% |  |

Further lines, with some results ahead:

| inhibition at 20 µM [2] | inhibition at 20 µM [3] | SMILES | % inh of JNK in Panc-1 [1] |
| --- | --- | --- | --- |
| 26 to 49% | 26 to 49% | COc1cc(Nc2nc(-c3nccn3C)nn3cc(-c4ccccn4)c(C)c23)ncn1 [Compound 94, N-(6-Methoxypyrimidin-4-yl)-5-methyl-2-(1-methyl-1H-imidazol-2-yl)-6-(pyridin-2-yl)pyrrolo[2,1-f][1,2,4]triazin-4-amine] |  |
| 50 to 75% | 76 to 100% | COc1cc(Nc2nc(-c3nccn3C)nn3cc(-c4ccn(C(C)C)n4)c(C)c23)ncn1 [Compound 6, 6-(1-Isopropyl-1H-pyrazol-3-yl)-N-(6-methoxypyrimidin-4-yl)-5-methyl-2-(1-methyl-1H-imidazol-2-yl)pyrrolo[2,1-f][1,2,4]triazin-4-amine] | H* (H* ≥ 100% activation) |
| 76 to 100% | 76 to 100% | Cc1c(-c2ccn(C(C)C)n2)cn2nc(-c3nccn3C)nc(Nc3nccn3C)c12 [Compound 93, 6-(1-Isopropyl-1H-pyrazol-3-yl)-5-methyl-N,2-bis(1-methyl-1H-imidazol-2-yl)pyrrolo[2,1-f][1,2,4]triazin-4-amine] | H* (H* ≥ 100% activation) |
